Laboratory results as given in US11202792B2, “CD99 inhibitors and their uses” (GEORGETOWN UNIVERSITY, priority 2016, dated 2021).

Columns and labels:
[1] = system: CD99-transfected SAOS-2 and U-2 OS cells; assay: Real-time proliferation (xCELLigence) of OS cells with forced CD99 expression; type: cell-based, human; details: dose-dependent
Experimental: U-2 OS and SAOS-2 cells were transfected with pcDNA3.1 expression vector carrying the human full-length CD99 transcript variant 1 cDNA using the X-tremeGene 9 DNA transfection reagent (Roche Diagnostics) according to the manufacturer's recommendations. The expression of CD99 was assessed after 48 h by immunoblotting.
OS cells express low levels of CD99 and the forced ectopic expression of CD99 reduces their growth. To test whether cladribine can rescue the reduced proliferation phenotype induced by overexpression of CD99, U-2 OS and SAOS-2 cells were transiently transfected with a mammalian expression vector containing cDNA encoding full length human CD99. As expected, CD99-forced expression suppressed cell proliferation compared with empty-vector transfected cells, which was rescued by the addition of cladribine in a dose-dependent manner (FIGS. 7C-D and FIG. 9).

[2] = system: MSK1/2 phosphorylation in STA-ET-7.2 and TC-32 cells; assay: MSK1/2 phosphorylation by immunoblot, ES cells; type: cell-based, human; details: 0.6 μmol/L (STA-ET-7.2) or 0.5 μmol/L (TC-32), 24 h, vs vehicle
Experimental: (§1) In a parallel set of experiment, cells were also treated with 15 μg/mL of either mouse control IgM or CD99 blocking antibody for the same duration. Total cell lysates were analyzed by immunoblotting for MSK1/2 phosphorylation. […] In a parallel set of experiment, cells were transfected with either siRNA control or siRNA targeting the coding region of CD99 protein. Total cell lysates were analyzed after 48 h by immunoblotting for MSK1/2 phosphorylation after cell transfection. […] In FIG. 23D, SCID/beige mice were implanted with TC-71 xenografts in their tibia. […] Tumor lysates were analyzed by immunoblotting for MSK1/2 phosphorylation.
(§2) Quantitative analysis of protein bands was performed using ImageJ 1.48v software. Immunoblotting was performed as described above.

[3] = target: T1, CD99 protein (Homo sapiens, UniProt P14209); assay: Cellular thermal shift assay (CETSA) in TC-71 cell lysates; type: binding; details: 3.0 μmol/L, 30 min, high temperatures vs control lysates
T1 construct: The thermostability of endogenous CD99 protein increased in cell lysates from TC-71 cells; endogenous in cells; host or cells: TC-71 total cell lysate
Experimental: The CETSA method was used according to Martinez Molina et al. (“Monitoring drug target engagement in cells and tissues using the cellular thermal shift assay,” Science 341: 84-87 (2013)) and Jafari et al. (“The cellular thermal shift assay for evaluating drug target interactions in cells,” Nat Protoc 9:2100-22 (2014)). […] The cell lysates in 60 μL volumes were individually heated in thin wall PCR tubes to the indicated temperatures for 3 min, by using Veriti 96-well Thermal Cycler (Applied Biosystems (Foster City, Calif.)). Samples were then centrifuged at 16,000×g for 30 min at 4° C. to remove insoluble proteins, and 40 ul of the resulting supernatants were transferred into new eppendorf tubes for subsequent SDS-PAGE and immunoblotting analysis.

[4] = system: A4573 xenografts; assay: Orthotopic A4573 xenograft, i.p. administration; type: in vivo, SCID/beige mice
Experimental: (§3) All tumor tissues were fixed in 10% neutral buffered formalin for 24 h, dehydrated through a graded series of alcohols and cleared in xylenes prior to embedding in paraffin. Embedded tissues were cut into 5 μm thick sections and stained with hematoxylin and eosin (H&E). Immunohistochemical staining was performed for CD99 and caspase 3 (cleaved). Five micron sections from formalin fixed paraffin embedded tissues were de-paraffinized with xylenes and rehydrated through a graded alcohol series. Heat induced epitope retrieval was performed by immersing the tissue sections at 98° C. for 60 min in 10 mmol/L citrate buffer (pH 6.0). Immunohistochemical staining was performed using a horseradish peroxidase labeled polymer from Agilent (Santa Clara, Calif.) (#K4001, #K4003) according to manufacturer's instructions. Briefly, slides were treated with 3% hydrogen peroxide and 10% normal goat serum for 10 min each, and exposed to primary antibodies for CD99 (Abcam, #ab8855) at a 1:100 dilution and for caspase 3 (cleaved) (Biocare (Pacheco, Calif.), #CP229A) at a 1:90 dilution in Da Vinci Green for one hour and stained on an DAKO Autostainer. Slides were exposed to the appropriate HRP labeled polymer for 30 min and DAB chromogen (Dako (Santa Clara, Calif.) for 5 min. Slides were counterstained with Hematoxylin (Fisher, Harris Modified Hematoxylin), blued in 1% ammonium hydroxide, dehydrated, and mounted with Acrymount. Consecutive sections with the primary antibody omitted were used as negative controls. The sections were evaluated in a blinded fashion by a board certified pathologist.
The antitumor activity of drugs through intraperitoneal (i.p.) administration given once daily was determined. […] The in vivo potencies of drug treatments were evaluated by event-free survival curves, where tumors that reached 1.0 cm^3 in size considered an event.

[5] = system: TC-71 xenografts; assay: Orthotopic TC-71 xenograft, oral administration; type: in vivo, SCID/beige mice
Experimental: as §3
In this study, reduction in number of mitotic figures and increase in caspase-3 staining was less prominent. […] Therefore, when the animals were euthanized for tumor regrowth they were not receiving any clofarabine. Their last dose of clofarabine was more than two week before the tissue harvest.

[6] = system: MSK1/2 phosphorylation in MG63.3 and U-2 OS cells; assay: MSK1/2 phosphorylation by immunoblot, OS cells; type: cell-based, human; details: 1.0 μmol/L, 24 h
Experimental: as §1, §2

[7] = system: TC-32 ES cells transfected with DCK siRNA; assay: Response to clofarabine after DCK siRNA, ES cells; type: cell-based, human; details: TC-32, DCK siRNA
Excerpt: (§4) The expression of DCK and CD99 was suppressed transiently by using a validated small interfering RNA (siRNA) duplexes targeting coding region (Invitrogen (Carlsbad, Calif.); #s186 and #s8768, respectively). Silencer™ Select Negative Control No. 2 siRNA (Invitrogen) was used as the control. Cells were transfected with DCK or CD99 or control siRNA oligonucleotides using X-tremeGene siRNA transfection reagent (Roche Diagnostics (Basel, Switzerland)) according to the manufacturer's protocol. The cells were analyzed for DCK and CD99 knockdown after 45 or 72 h by immunoblotting.

[8] = system: TC-CD99-shRNA #1 cells; assay: Soft agar colony formation assay, CD99 knockdown cells; type: cell-based, human
[9] = system: MG63.3 OS cells transfected with DCK siRNA; assay: Response to clofarabine after DCK siRNA, OS cells; type: cell-based, human; details: MG63.3, DCK siRNA
Excerpt: as §4

[10] = system: A4573 ES cells; assay: Cell viability IC50 (WST-1), A4573; type: cell-based, human; details: Homo sapiens, WST-1, 48 h (FIG. 10B)

T1 sequence (P14209 23-185): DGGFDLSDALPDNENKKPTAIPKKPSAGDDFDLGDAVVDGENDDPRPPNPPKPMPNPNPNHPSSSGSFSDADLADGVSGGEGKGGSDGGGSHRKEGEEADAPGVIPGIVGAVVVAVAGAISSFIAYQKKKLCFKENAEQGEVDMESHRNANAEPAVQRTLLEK

Nc1nc(Cl)nc2c1ncn2[C@H]1C[C@H](O)[C@@H](CO)O1 [cladribine]
rescue of reduced cell proliferation induced by CD99 expression [1]: rescued

Nc1nc(Cl)nc2c1ncn2[C@@H]1O[C@H](CO)[C@@H](O)[C@@H]1F [clofarabine]
phosphorylation levels of MSK1/2 [2]: significantly elevated | thermostability of endogenous CD99 protein [3]: increased | mitotic figures per field ([4]; H&E, 200-fold magnification): ≤ 3 | apoptotic cells ([4]; H&E, confirmed by caspase-3 immunohistochemistry): significant increase | event-free survival ([4]; i.p. once daily, clofarabine 30 mg/kg, vs vehicle): significantly improved | tumor growth ([4]; i.p., clofarabine 30 mg/kg): significant inhibition of tumor growth | mitotic figures ([5]; TC-71 xenograft harvested after 2 days of 30 mg/kg oral): complete loss | apoptotic cells ([5]; TC-71 xenograft harvested after 2 days of 30 mg/kg oral, H&E, caspase-3): significant increase | phosphorylation levels of MSK1/2 in tumors ([5]; TC-71 xenograft, oral 30 mg/kg for two days, three out of four mice): significant increase | tumor growth ([5]; TC-71 xenograft, 30 mg/kg orally once daily 14 days, compared to i.p. administration): more significant inhibition of tumor growth | median event-free survival ([5]; TC-71 xenograft, 30 mg/kg orally once daily for 14 days, vehicle 7 days, p<0.0001): 33 days | phosphorylation levels of MSK1/2 [6]: Neither MG63.3 nor U2-OS cells showed a response | response after inhibiting DCK protein expression [7]: shift to the right of the IC50 curve | colony formation in CD99 knockdown cells [8]: did not result in further decrease | response after inhibiting DCK protein expression [9]: complete resistance | IC50 [10]: 310 nM
